Among the data in ChEMBL document CHEMBL4390705, “A new lateral root growth inhibitor from the sponge-derived fungus Aspergillus sp. LS45” (Bioorg Med Chem Lett, 2019) are IC50 and inhibition values, retold here.

A word on the IC50: it is the midpoint of a concentration-inhibition curve.

The source made the active and inactive calls. The calls are words filed in the database; no cut-off is given here. A value given as a limit tells only on which side of the number the result lay.

The test system of one test is K562. As to the kind of experiment: Cytotoxicity against human K562 cells by MTT assay. The test is classed as functional, cell-based. (Tetrazolium dyes change colour on reduction, which living cells bring about.)
A further test deals with CCRF-CEM. As to the kind of experiment: Cytotoxicity against human CCRF-CEM cells by MTT assay. The test is classed as functional, cell-based.
Another test has as its target T1, Acetylcholinesterase (Mus musculus, UniProt P21836).
T1 sequence (P21836 whole entry): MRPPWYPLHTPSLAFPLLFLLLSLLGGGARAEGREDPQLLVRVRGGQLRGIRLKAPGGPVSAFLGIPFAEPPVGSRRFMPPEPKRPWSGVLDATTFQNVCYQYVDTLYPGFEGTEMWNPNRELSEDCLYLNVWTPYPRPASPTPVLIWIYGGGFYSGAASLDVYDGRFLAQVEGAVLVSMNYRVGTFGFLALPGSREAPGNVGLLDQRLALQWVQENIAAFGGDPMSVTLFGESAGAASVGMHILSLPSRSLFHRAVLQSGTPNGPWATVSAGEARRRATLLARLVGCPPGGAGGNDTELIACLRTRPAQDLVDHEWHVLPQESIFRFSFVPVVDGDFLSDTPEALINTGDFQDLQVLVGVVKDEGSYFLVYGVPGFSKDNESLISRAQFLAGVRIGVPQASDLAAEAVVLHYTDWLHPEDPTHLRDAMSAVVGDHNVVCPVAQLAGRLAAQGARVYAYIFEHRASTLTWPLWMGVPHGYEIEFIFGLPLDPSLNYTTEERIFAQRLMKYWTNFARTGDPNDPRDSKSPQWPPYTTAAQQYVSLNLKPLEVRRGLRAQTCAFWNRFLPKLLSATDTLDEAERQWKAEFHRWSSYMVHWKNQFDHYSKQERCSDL
In words: Inhibition of mouse brain homogenate AChE using acetylthiocholine iodide as substrate measured after 15 mins in presence of BChE inhibitor methopropazine hydrochloride by DTNB reagent based colorimetric method. The class given is tissue-based.

Test [1] concerns Arabidopsis thaliana. In words: Inhibition of seed germination in Arabidopsis thaliana Columbia-0 assessed as reduction in lateral root growth at 50 to 100 uM incubated for 10 days under 16 hrs-light/8 hrs-dark condition by microscopic analysis. The class given is functional, organism-based.
For test [2], the system named is Arabidopsis thaliana. As to the kind of experiment: Inhibition of seed germination in Arabidopsis thaliana Columbia-0 assessed as reduction in primary root growth at 100 uM incubated for 10 days under 16 hrs-light/8 hrs-dark condition by microscopic analysis. The class given is functional, organism-based.
The test system of test [3] is Arabidopsis thaliana. In words: Inhibition of seed germination in Arabidopsis thaliana Columbia-0 assessed as reduction in primary root growth at 50 uM incubated for 10 days under 16 hrs-light/8 hrs-dark condition by microscopic analysis. The class given is functional, organism-based.
For the next test, the system named is BGC-823. In words: Cytotoxicity against human BGC823 cells by MTT assay. The test is classed as functional, cell-based.
In another test the test system is HCT-116. In words: Cytotoxicity against human HCT116 cells by MTT assay. The class given is functional, cell-based.
In test [4] the test system is Arabidopsis thaliana. In words: Inhibition of seed germination in Arabidopsis thaliana Columbia-0 assessed as reduction in lateral root growth up to 100 uM incubated for 10 days under 16 hrs-light/8 hrs-dark condition by microscopic analysis. The class given is functional, organism-based.
For a further test, the system named is AGS. In words: Cytotoxicity against human AGS cells by MTT assay. The class given is functional, cell-based.
A further test concerns MDA-MB-231. As to the kind of experiment: Cytotoxicity against human MDA-MB-231 cells by MTT assay. The test is classed as functional, cell-based.
Test [5] relates to Arabidopsis thaliana. As to the kind of experiment: Inhibition of seed germination in Arabidopsis thaliana Columbia-0 assessed as reduction in primary root growth up to 100 uM incubated for 10 days under 16 hrs-light/8 hrs-dark condition by microscopic analysis. The class given is functional, organism-based.

As for `Nc1cc(F)ccc1NC(=O)c1ccc(CNC(=O)/C=C/c2cccnc2)cc1` [TUCIDINOSTAT], the 50% inhibitory concentration (IC50) in the test on K562 turned out to be 1.34 µM; in the test with CCRF-CEM, 0.63 µM.

On to `CC(C)c1ccc(CO)c2ccc(C(=O)O)cc12`, for which the IC50 on Acetylcholinesterase is above 200 µM; with K562 it was 12.9 µM; in the test with CCRF-CEM it was 13.8 µM. Moreover, the inhibition result with Arabidopsis thaliana [1] and in the test on Arabidopsis thaliana [3] was “Active” throughout. Moreover, in the test with Arabidopsis thaliana [2], the inhibition entry was “inactive”.

`CCCC1=C/C(=C\[C@H](O)[C@@H](C)O)OC1=O`: the IC50 is above 200 µM on Acetylcholinesterase; above 50 µM in the test with BGC-823; above 50 µM in the test with HCT-116; above 50 µM in the test on AGS; above 50 µM in the test on K562; above 50 µM in the test on MDA-MB-231. In the test with CCRF-CEM, this molecule showed an IC50 above 50 µM. In addition, the inhibition result in the test with Arabidopsis thaliana [4] and in the test on Arabidopsis thaliana [5] was “inactive” throughout.

Regarding `CCCC1=C/C(=C/[C@H](O)[C@@H](C)O)OC1=O`, the IC50 on Acetylcholinesterase is above 200 µM; in the test with BGC-823, above 50 µM; in the test with HCT-116, above 50 µM; in the test on AGS it was above 50 µM; with K562, above 50 µM; in the test with MDA-MB-231 it was above 50 µM. Also, the IC50 in the test with CCRF-CEM is above 50 µM. Also, the inhibition result in the test with Arabidopsis thaliana [1] and with Arabidopsis thaliana [3] was “Active” throughout. In the test on Arabidopsis thaliana [2], the inhibition result is “inactive”.

For the molecule `CC[C@H](O)c1oc(=O)cc(OC)c1C`, the IC50 was above 200 µM at Acetylcholinesterase; above 50 µM with BGC-823; above 50 µM with HCT-116; above 50 µM in the test on AGS; above 50 µM with K562; above 50 µM with MDA-MB-231. The same molecule registered a half-inhibitory concentration (IC50) in the test with CCRF-CEM above 50 µM. Moreover, the inhibition result in the test on Arabidopsis thaliana [4] and with Arabidopsis thaliana [5] was “inactive” throughout.
